Reference: ChEMBL document CHEMBL5543095 (Eur J Med Chem, 2024)
The source made the active and inactive calls. The rule behind the calls is not given here.

What was measured:
U-87 MG [1] = test: Antiproliferative activity against human U87 cells assessed as inhibition of cell growth inhibition incubated for 48 hrs by CCK-8 assay; assay type: functional, cell-based, U-87MG ATCC
Huh-7 = test: Antiproliferative activity against human Huh-7 cells assessed as inhibition of cell growth inhibition incubated for 48 hrs by CCK-8 assay; assay type: functional, cell-based; conditions: Huh-7, 48 h
U-87 MG [2] = test: Induction of cell cycle arrest in human U87 cells assessed as accumulation of cells at G1 phase at 0.5 uM measured after 48 hrs by PI staining based flow cytometry analysis (reference value: 72.6%); assay type: functional, U-87MG ATCC
U-87 MG [3] = test: Inhibition of cell migration in human U87 cells assessed as reduction in wound healing measured after 24 to 48 hrs by scratch assay; assay type: functional, cell-based; conditions: U-87MG ATCC, dose 0-1 µM, time 24-48 hrs
U-87 MG [4] = test: Induction of apoptosis in human U87 cells assessed as live cells at 0.625 uM incubated for 48 hrs by Annexin V-FITC/PI staining based flow cytometry analysis (reference value: 91.7%); assay type: functional, U-87MG ATCC
U-87 MG [5] = test: Induction of apoptosis in human U87 cells assessed as late apoptotic cells at 0.625 uM incubated for 48 hrs by Annexin V-FITC/PI staining based flow cytometry analysis (reference value: 2.08%); assay type: functional, U-87MG ATCC
U-87 MG [6] = test: Induction of apoptosis in human U87 cells assessed as live cells at 1.25 uM incubated for 48 hrs by Annexin V-FITC/PI staining based flow cytometry analysis (reference value: 91.7%); assay type: functional, U-87MG ATCC
U-87 MG [7] = test: Induction of apoptosis in human U87 cells assessed as early apoptotic cells at 1.25 uM incubated for 48 hrs by Annexin V-FITC/PI staining based flow cytometry analysis (reference value: 6.25%); assay type: functional, U-87MG ATCC
U-87 MG [8] = test: Induction of apoptosis in human U87 cells assessed as live cells at 2.5 uM incubated for 48 hrs by Annexin V-FITC/PI staining based flow cytometry analysis (reference value: 91.7%); assay type: functional, U-87MG ATCC
U-87 MG [9] = test: Induction of apoptosis in human U87 cells assessed as dead cells at 2.5 uM incubated for 48 hrs by Annexin V-FITC/PI staining based flow cytometry analysis (reference value: 0.013%); assay type: functional, U-87MG ATCC
GL261-Luc = test: Antitumor activity against mouse GL261-Luc cells implanted in C57BL/6 mouse assessed as reduction in tumor cell growth at 10 mg/kg, iv administered every other day on day 0,2,4,6,8,10 and measured after 12 days by H and E staining based analysis; assay type: functional, organism-based; conditions: time 12.0 day
[10] = Toxicity in C57BL/6 mouse implanted with mouse GL261-Luc cells assessed as histopathological changes in heart at 5 to 10 mg/kg, iv administered every other day on day 0,2,4,6,8,10 and measured after 12 days by H and E staining based analysis; assay type: organism-based; conditions: in vivo, 288 h, dose 5-10 mg/kg, time 12 day
[11] = Toxicity in C57BL/6 mouse implanted with mouse GL261-Luc cells assessed as histopathological changes in spleen at 5 to 10 mg/kg, iv administered every other day on day 0,2,4,6,8,10 and measured after 12 days by H and E staining based analysis; assay type: organism-based; conditions: in vivo, 288 h, dose 5-10 mg/kg, time 12 day
[12] = Apparent permeability across apical to basolateral side in MDCK-MDR1 cells at 10 uM incubated for 90 mins by LC-MS/MS analysis; assay type: ADME, cell-based, Canis lupus familiaris; conditions: dog
U-87MG ATCC [13] = test: Downregulation of TUBA1B gene expression in human U87 cells by transcriptome analysis; assay type: functional, cell-based
U-87MG ATCC [14] = test: Downregulation of TUBB gene expression in human U87 cells by transcriptome analysis; assay type: functional, cell-based
U-87MG ATCC [15] = test: Downregulation of TUBB4B gene expression in human U87 cells by transcriptome analysis; assay type: functional, cell-based
U-87MG ATCC [16] = test: Upregulation of CORO1A gene expression in human U87 cells by transcriptome analysis; assay type: functional, cell-based
Tubulin (Homo sapiens) [17] = molecular target: T1, Tubulin (Homo sapiens) (UniProt P68371+Q9H4B7+P0DPH7+P68366+Q13509+Q71U36+P04350+Q3ZCM7+P07437+P68363+Q9BQE3+Q6PEY2+Q13885+Q9BVA1+Q9BUF5); test: Inhibition of tubulin (unknown origin) polymerization assessed as reduction in polymerization rate by fluorescence based analysis; assay type: protein-complex assay; conditions: dose 6-12 µM
Tubulin (Homo sapiens) [18] = molecular target: T1, Tubulin (Homo sapiens); test: Inhibition of tubulin (unknown origin) polymerization assessed as reduction in steady state content of tubulins at 6 to 12 uM by fluorescence based analysis; assay type: protein-complex assay; conditions: dose 6-12 µM
Tubulin (Homo sapiens) [19] = molecular target: T1, Tubulin (Homo sapiens); test: Binding affinity to colchicine binding site of tubulin in human U87 cells assessed as inhibition of EBI-tubulin adduct formation by measuring disappearance of adduct bands pretreated for 2 hrs followed by EBI addition and measured after 2 hrs by Western blot analysis; assay type: cell-based; conditions: dose 10-100 µM, time 4.0 hrs

Cc1ccc2ccc3c(c2n1)OC(N)=C(C#N)C3c1ccccc1 (stereo unspecified)
IC50 (U-87 MG [1]): 0.9 µM
IC50 (Huh-7): 1.19 µM
Activity (U-87 MG [2]): 72%
inhibition (U-87 MG [3]): Dose-Dependent Effect
Activity (U-87 MG [4]): 75.9%
Activity (U-87 MG [5]): 7.88%
Activity (U-87 MG [6]): 73.9%
Activity (U-87 MG [7]): 21.2%
Activity (U-87 MG [8]): 62.5%
Activity (U-87 MG [9]): 0.1%
Activity (GL261-Luc): Active
Activity [10]: Non-Toxic
Activity [11]: Non-Toxic
Papp A→B at 1.5 h, 10 µM [12]: 33.7 ×10⁻⁶ cm/s
Activity (U-87MG ATCC [13]): Active
Activity (U-87MG ATCC [14]): Active
Activity (U-87MG ATCC [15]): Active
Activity (U-87MG ATCC [16]): Active
inhibition (Tubulin (Homo sapiens) [17]): Dose-Dependent Effect
inhibition (Tubulin (Homo sapiens) [18]): Active
Activity (Tubulin (Homo sapiens) [19]): Dose-Dependent Effect
